Data published in US20260297085A1, “1 H-PYRROLO[2,3-B]PYRIDIN-4-YL]-2-OXOPYRROLIDINE-3-CARBONITRILE DERIVATIVES AS TYROSINE KINASE 2 (TYK2) INHIBITORS FOR THE TREATMENT OF INFLAMMATORY DISEASES” (BIOGEN MA INC., priority 2023, published 2026).
Structures can show the parent of a compound that is named as a salt.

Key:
[1] = molecular target: T1, human JAK2 kinase domain (JH1) (Homo sapiens, UniProt O60674); assay: JH1 biochemical assay for JAK2 (ADP-Glo kinase assay, recombinant JH1 catalytic domain, JAK3-974 peptide, 15 μM ATP)
T1 construct: recombinantly generated catalytic kinase (also known as JH1) domain of human JAK1, JAK2, JAK3 and TYK2
T1 sequence (O60674 849-1124 limits assumed): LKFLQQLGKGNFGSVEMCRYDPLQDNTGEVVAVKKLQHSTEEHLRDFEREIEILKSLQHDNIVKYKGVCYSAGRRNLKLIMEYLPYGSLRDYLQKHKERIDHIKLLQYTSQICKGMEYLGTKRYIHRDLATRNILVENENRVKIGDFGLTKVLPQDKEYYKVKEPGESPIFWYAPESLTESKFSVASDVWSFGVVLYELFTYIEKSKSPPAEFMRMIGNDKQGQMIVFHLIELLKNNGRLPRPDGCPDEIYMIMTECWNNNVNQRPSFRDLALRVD
Summary of the method: (§1)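 Kinase 4 nM JAK1 / 0.2 nM JAK2 / 0.3 nM JAK3 / 2 nM TYK2; 50 μM peptide; 100 min. Unused ATP depleted, ADP→ATP, luciferase luminescence. 11-pt 3-fold series from 10 or 1 μM; normalized, 4PL fit → IC50.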

[2] = molecular target: T2, human JAK3 kinase domain (JH1) (Homo sapiens, UniProt P52333); assay: JH1 biochemical assay for JAK3 (ADP-Glo kinase assay, recombinant JH1 catalytic domain, JAK3-974 peptide, 4 μM ATP)
T2 construct: recombinantly generated catalytic kinase (also known as JH1) domain of human JAK1, JAK2, JAK3 and TYK2
T2 sequence (P52333 822-1111 limits assumed): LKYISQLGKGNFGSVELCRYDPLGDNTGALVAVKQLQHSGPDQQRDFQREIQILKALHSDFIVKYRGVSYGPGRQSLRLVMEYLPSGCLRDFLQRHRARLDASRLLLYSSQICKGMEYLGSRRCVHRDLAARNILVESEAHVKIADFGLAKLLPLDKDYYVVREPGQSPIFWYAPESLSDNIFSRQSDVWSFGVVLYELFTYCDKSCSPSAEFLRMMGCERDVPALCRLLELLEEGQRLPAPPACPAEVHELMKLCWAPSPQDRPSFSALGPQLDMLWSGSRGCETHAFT
Summary of the method: as §1

[3] = molecular target: T3, human TYK2 kinase domain (JH1) (Homo sapiens, UniProt P29597); assay: JH1 biochemical assay for TYK2 (ADP-Glo kinase assay, recombinant JH1 catalytic domain, JAK3-974 peptide, 10 μM ATP)
T3 construct: recombinantly generated catalytic kinase (also known as JH1) domain of human JAK1, JAK2, JAK3 and TYK2
T3 sequence (P29597 897-1176 limits assumed): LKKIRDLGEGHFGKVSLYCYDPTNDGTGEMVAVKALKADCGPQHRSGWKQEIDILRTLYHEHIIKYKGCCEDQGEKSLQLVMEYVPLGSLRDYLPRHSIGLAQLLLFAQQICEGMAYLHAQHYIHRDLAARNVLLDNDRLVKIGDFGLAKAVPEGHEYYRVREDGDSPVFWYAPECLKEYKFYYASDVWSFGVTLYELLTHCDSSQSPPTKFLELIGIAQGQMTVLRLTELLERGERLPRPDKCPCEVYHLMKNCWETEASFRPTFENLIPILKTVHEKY
Summary of the method: as §1

[4] = molecular target: JAK1 kinase activity on STAT3 in TF1 cells (Homo sapiens, UniProt P23458); assay: pSTAT3 cell assay (MSD; TF1 cells, 30 ng/mL IL-6 stimulation); assay type: cell-based; settings: 30 ng/mL IL-6, 15 minutes
Sequence of JAK1 kinase activity on STAT3 in TF1 cells (P23458 whole entry): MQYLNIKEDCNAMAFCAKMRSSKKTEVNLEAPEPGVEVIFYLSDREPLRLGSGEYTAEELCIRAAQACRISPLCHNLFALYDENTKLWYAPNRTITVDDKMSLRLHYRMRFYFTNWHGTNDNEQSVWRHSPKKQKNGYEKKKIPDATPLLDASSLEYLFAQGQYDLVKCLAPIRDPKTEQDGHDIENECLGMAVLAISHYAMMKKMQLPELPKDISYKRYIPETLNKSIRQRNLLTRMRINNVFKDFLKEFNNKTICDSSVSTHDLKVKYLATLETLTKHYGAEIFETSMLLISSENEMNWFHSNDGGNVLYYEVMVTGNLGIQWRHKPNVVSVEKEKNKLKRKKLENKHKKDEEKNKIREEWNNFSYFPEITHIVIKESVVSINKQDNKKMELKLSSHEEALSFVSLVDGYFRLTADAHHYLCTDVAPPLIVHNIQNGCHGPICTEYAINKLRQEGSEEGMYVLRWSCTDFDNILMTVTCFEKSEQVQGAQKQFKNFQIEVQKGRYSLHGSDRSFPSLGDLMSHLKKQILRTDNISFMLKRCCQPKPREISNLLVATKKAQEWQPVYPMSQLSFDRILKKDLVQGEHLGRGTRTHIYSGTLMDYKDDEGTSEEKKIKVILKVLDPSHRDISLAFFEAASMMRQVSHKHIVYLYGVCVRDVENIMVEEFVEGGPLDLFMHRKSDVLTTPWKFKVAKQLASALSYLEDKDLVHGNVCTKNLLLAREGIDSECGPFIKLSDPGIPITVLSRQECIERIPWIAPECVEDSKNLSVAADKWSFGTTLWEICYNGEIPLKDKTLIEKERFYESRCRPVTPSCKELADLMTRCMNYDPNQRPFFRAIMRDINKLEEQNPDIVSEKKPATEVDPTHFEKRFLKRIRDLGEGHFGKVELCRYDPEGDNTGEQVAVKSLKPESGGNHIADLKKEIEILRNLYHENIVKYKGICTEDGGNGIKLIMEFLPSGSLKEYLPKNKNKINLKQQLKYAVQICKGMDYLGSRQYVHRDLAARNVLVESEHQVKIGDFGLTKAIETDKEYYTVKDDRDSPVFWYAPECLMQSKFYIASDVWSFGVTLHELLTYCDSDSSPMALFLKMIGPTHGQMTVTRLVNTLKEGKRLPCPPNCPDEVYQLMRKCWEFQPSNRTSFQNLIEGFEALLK
Summary of the method: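 Serum-starved TF1 cells were pretreated with compound for 1 hour (10-point, four-fold dilutions from 10 μM), then stimulated with IL-6 for 15 minutes. Lysates were assayed for pSTAT3 by MSD with anti-STAT3 antibodies; IC50 came from a 4-parameter logistic fit of normalized percent activity.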

[5] = molecular target: Tyk2 kinase activity on STAT4 in NK92 cells (Homo sapiens, UniProt P29597); assay: pSTAT4 cell assay (MSD; NK92 cells, 30 ng/mL IL2 stimulation); assay type: cell-based; settings: 30 ng/mL IL2, 15 minutes
Sequence of Tyk2 kinase activity on STAT4 in NK92 cells (P29597 whole entry): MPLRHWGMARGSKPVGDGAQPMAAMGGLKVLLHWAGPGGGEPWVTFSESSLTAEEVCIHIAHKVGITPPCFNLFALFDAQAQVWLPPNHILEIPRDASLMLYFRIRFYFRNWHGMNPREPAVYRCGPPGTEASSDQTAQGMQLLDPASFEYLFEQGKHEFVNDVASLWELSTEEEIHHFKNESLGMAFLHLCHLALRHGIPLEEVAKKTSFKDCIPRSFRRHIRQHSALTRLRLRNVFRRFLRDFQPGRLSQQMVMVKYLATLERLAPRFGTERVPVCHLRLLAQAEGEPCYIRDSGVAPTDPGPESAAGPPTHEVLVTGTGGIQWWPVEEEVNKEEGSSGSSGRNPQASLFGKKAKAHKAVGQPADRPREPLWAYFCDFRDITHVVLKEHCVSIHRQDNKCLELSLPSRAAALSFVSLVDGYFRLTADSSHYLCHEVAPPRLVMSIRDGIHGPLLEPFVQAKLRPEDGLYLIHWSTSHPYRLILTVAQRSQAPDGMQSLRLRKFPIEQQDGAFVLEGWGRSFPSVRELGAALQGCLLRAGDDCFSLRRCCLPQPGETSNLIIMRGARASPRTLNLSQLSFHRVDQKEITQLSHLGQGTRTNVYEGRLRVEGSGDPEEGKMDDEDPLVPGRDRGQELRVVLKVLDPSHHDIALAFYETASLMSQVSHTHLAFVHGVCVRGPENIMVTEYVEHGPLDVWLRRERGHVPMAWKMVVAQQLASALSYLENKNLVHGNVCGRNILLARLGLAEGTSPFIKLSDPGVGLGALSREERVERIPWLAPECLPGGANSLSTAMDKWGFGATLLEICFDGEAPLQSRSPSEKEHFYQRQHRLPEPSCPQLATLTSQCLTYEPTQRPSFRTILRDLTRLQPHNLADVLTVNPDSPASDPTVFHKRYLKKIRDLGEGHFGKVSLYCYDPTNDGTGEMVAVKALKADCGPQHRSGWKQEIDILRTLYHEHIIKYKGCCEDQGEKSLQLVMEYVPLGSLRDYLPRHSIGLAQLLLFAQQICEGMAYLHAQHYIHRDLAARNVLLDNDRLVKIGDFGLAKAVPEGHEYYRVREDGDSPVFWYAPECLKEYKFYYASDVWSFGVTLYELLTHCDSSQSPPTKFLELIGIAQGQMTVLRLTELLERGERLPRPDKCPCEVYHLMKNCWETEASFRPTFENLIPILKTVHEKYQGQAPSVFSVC
Summary of the method: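 IC50 values derive from 4-parameter logistic fits of normalized percent activity against log compound concentration. Phospho-STAT was measured by MSD with anti-STAT4 antibodies after 15 min of 30 ng/mL IL2 in serum-starved NK92 cells pretreated 1 hr with compound.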

[6] = molecular target: JAK2 kinase activity on STAT5 in TF1 cells (Homo sapiens, UniProt O60674); assay: pSTAT5 cell assay (MSD; TF1 cells, 30 ng/mL IL-3 stimulation); assay type: cell-based; settings: 30 ng/mL IL-3, 15 minutes
Sequence of JAK2 kinase activity on STAT5 in TF1 cells (O60674 whole entry): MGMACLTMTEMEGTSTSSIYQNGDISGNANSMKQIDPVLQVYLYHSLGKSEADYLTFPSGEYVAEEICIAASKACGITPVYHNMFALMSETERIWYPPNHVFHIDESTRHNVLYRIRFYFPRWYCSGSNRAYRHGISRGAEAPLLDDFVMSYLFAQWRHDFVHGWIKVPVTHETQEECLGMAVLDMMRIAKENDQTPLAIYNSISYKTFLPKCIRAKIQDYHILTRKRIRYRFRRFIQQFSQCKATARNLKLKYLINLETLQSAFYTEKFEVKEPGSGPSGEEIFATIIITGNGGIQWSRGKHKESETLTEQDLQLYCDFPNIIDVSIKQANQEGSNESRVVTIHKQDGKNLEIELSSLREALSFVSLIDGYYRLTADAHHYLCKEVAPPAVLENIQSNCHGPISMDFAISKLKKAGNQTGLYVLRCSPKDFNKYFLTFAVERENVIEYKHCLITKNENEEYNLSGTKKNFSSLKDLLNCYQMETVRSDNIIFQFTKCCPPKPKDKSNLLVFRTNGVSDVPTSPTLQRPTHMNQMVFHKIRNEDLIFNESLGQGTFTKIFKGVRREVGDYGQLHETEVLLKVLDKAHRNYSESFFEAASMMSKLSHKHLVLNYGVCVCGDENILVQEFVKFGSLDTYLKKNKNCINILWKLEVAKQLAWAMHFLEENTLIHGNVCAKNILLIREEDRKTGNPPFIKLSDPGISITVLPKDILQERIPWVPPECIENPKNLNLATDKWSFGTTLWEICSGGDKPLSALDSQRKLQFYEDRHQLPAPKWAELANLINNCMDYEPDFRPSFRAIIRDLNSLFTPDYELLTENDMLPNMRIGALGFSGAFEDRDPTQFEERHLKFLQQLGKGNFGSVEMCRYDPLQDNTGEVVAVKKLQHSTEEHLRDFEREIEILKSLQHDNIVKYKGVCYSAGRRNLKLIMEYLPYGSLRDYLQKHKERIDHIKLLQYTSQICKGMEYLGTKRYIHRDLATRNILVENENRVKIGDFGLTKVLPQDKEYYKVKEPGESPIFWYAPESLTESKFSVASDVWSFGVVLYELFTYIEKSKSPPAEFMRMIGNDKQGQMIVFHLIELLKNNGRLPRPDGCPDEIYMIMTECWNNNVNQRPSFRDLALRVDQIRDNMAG
Summary of the method: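 Serum-starved TF1 cells with native JAK2/STAT5 were pretreated 1 h with compound (10-point four-fold dilutions from 10 μM), then stimulated 15 min with 30 ng/mL IL-3. pSTAT5 in lysates quantified by MSD immunoassay; normalized percent activity fitted to a 4-parameter logistic curve for IC50.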

[7] = molecular target: T4, human JAK1 kinase domain (JH1) (Homo sapiens, UniProt P23458); assay: JH1 biochemical assay for JAK1 (ADP-Glo kinase assay, recombinant JH1 catalytic domain, JAK3-342 peptide, 35 μM ATP)
T4 construct: recombinantly generated catalytic kinase (also known as JH1) domain of human JAK1, JAK2, JAK3 and TYK2
T4 sequence (P23458 875-1153 limits assumed): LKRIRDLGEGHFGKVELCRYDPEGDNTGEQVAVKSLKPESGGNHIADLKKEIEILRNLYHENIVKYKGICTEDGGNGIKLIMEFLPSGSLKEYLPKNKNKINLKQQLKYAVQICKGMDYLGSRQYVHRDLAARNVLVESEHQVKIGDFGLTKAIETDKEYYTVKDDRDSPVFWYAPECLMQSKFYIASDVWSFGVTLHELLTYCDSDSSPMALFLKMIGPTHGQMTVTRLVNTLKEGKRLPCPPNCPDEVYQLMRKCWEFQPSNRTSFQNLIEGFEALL
Summary of the method: as §1

Row | Structure (SMILES) | IC50 ([1]; JH1 kinase domain, ADP-Glo) | IC50 ([2]; JH1 kinase domain, ADP-Glo) | IC50 ([3]; JH1 kinase domain, ADP-Glo) | IC50 [4] | IC50 [5] | IC50 [6] | IC50 ([7]; JH1 kinase domain, ADP-Glo) | IC50 ([1]; JAK2 JH1, ADP-Glo) | IC50 ([2]; JAK3 JH1, ADP-Glo) | IC50 ([3]; TYK2 JH1, ADP-Glo) | IC50 ([7]; JAK1 JH1, ADP-Glo)
1 | C[C@@H]1CN(c2nc(-c3ccc(=O)n(C(F)F)c3)cn3nccc23)C(=O)[C@]1(C#N)C1CC1 [Example 210, (3R,4S)-3-cyclopropyl-1-(6-(1-(difluoromethyl)-6-oxo-1,6-dihydropyridin-3-yl)pyrazolo[1,5-a]pyrazin-4-yl)-4-methyl-2-oxopyrrolidine-3-carbonitrile] | 100 to 1000 nM | < 100 nM | < 5 nM | 1 to 5 µM | > 100 nM | 5 to 10 µM | < 100 nM | – | – | – | –
2 | C[C@@H]1CN(c2ccnn3cc(-c4ccc(N(C)C)cn4)cc23)C(=O)[C@]1(C#N)C1CC1 [Example 134, (3R,4S)-3-cyclopropyl-1-(6-(5-(dimethylamino)pyridin-2-yl)pyrrolo[1,2-b]pyridazin-4-yl)-4-methyl-2-oxopyrrolidine-3-carbonitrile trifluoroacetate] | 100 to 1000 nM | 100 to 1000 nM | 5 to 20 nM | 1 to 5 µM | > 100 nM | 5 to 10 µM | 100 to 1000 nM | – | – | – | –
3 | C[C@@H]1CN(c2nc(-c3cnn([C@H]4CO[C@@H]4C)c3)cn3ncc(F)c23)C(=O)[C@]1(C#N)C1CC1 (relative stereo) [Example 306, (3R,4S)-3-cyclopropyl-1-(3-fluoro-6-(1-((2R,3 S)-2-methyloxetan-3-yl)-1H-pyrazol-4-yl)pyrazolo[1,5-a]pyrazin-4-yl)-4-methyl-2-oxopyrrolidine-3-carbonitrile and (3R,4S)-3-cyclopropyl-1-(3-fluoro-6-(1-((2S,3R)-2-methyloxetan-3-yl)-1H-pyrazol-4-yl)pyrazolo[1,5-a]pyrazin-4-yl)-4-methyl-2-oxopyrrolidine-3-carbonitrile] | – | – | – | 0.1 to 1 µM | 20 to 50 nM | 1 to 5 µM | – | < 100 nM | < 100 nM | < 5 nM | < 100 nM
4 | C[C@@H]1CN(c2nc(-c3cnn(C)c3)cn3ncc(Cl)c23)C(=O)[C@]1(C#N)C1CC1 [Example 206, (3R,4S)-1-(3-chloro-6-(1-methyl-1H-pyrazol-4-yl)pyrazolo[1,5-a]pyrazin-4-yl)-3-cyclopropyl-4-methyl-2-oxopyrrolidine-3-carbonitrile] | 100 to 1000 nM | 100 to 1000 nM | 5 to 20 nM | > 10 µM | > 100 nM | > 10 µM | 100 to 1000 nM | – | – | – | –
5 | CC(=O)Nc1cncc(-c2cc3c(N4C[C@@H](C)[C@@](C#N)(C5CC5)C4=O)ccnn3c2)c1 [Example 90, N-(5-(4-((3R,4S)-3-cyano-3-cyclopropyl-4-methyl-2-oxopyrrolidin-1-yl)pyrrolo[1,2-b]pyridazin-6-yl)pyridin-3-yl)acetamide] | 100 to 1000 nM | 100 to 1000 nM | 5 to 20 nM | 5 to 10 µM | > 100 nM | > 10 µM | 100 to 1000 nM | – | – | – | –
6 | Cc1nn(C)cc1-c1cc2c(N3C[C@@H](C)[C@@](C#N)(C4CC4)C3=O)ccnn2c1 [Example 165, (3R,4S)-3-cyclopropyl-1-(6-(1,3-dimethyl-1H-pyrazol-4-yl)pyrrolo[1,2-b]pyridazin-4-yl)-4-methyl-2-oxopyrrolidine-3-carbonitrile] | 100 to 1000 nM | 100 to 1000 nM | < 5 nM | 1 to 5 µM | 20 to 50 nM | 5 to 10 µM | 100 to 1000 nM | – | – | – | –
7 | Cc1cc(-c2cc3c(N4CC[C@@](C#N)(C5CC5)C4=O)ccnn3c2)on1 [Example 11, (S)-3-cyclopropyl-1-(6-(3-methylisoxazol-5-yl)pyrrolo[1,2-b]pyridazin-4-yl)-2-oxopyrrolidine-3-carbonitrile] | 1000 to 5000 nM | 100 to 1000 nM | 20 to 50 nM | > 10 µM | > 100 nM | > 10 µM | 1000 to 5000 nM | – | – | – | –
8 | C[C@@H]1CN(c2ccnn3cc(-c4ccc(C(=O)N(C)C)cn4)cc23)C(=O)[C@]1(C#N)C1CC1 [Example 124, 6-(4-((3R,4S)-3-cyano-3-cyclopropyl-4-methyl-2-oxopyrrolidin-1-yl)pyrrolo[1,2-b]pyridazin-6-yl)-N,N-dimethylnicotinamide trifluoroacetate] | 100 to 1000 nM | 100 to 1000 nM | 5 to 20 nM | 5 to 10 µM | > 100 nM | 5 to 10 µM | 100 to 1000 nM | – | – | – | –
9 | CC(C)n1cc(-c2cn3ncc(F)c3c(N3C[C@@H](C)[C@@](C#N)(C4CC4)C3=O)n2)cn1 [Example 190, (3R,4S)-3-cyclopropyl-1-(3-fluoro-6-(1-isopropyl-1H-pyrazol-4-yl)pyrazolo[1,5-a]pyrazin-4-yl)-4-methyl-2-oxopyrrolidine-3-carbonitrile] | < 100 nM | < 100 nM | < 5 nM | 0.1 to 1 µM | 20 to 50 nM | 1 to 5 µM | < 100 nM | – | – | – | –
10 | C[C@@H]1CN(c2ccnn3cc(-c4cccc5c4cnn5C)cc23)C(=O)[C@]1(C#N)C1CC1 [Example 54, (3R,4S)-3-cyclopropyl-4-methyl-1-(6-(1-methyl-1H-indazol-4-yl)pyrrolo[1,2-b]pyridazin-4-yl)-2-oxopyrrolidine-3-carbonitrile] | 1000 to 5000 nM | 100 to 1000 nM | 5 to 20 nM | 5 to 10 µM | > 100 nM | > 10 µM | 100 to 1000 nM | – | – | – | –
11 | C[C@@H]1CN(c2nc(-c3ccnc(C#N)c3)cn3nccc23)C(=O)[C@]1(C#N)C1CC1 [Example 197, 4-(4-((3R,4S)-3-cyano-3-cyclopropyl-4-methyl-2-oxopyrrolidin-1-yl)pyrazolo[1,5-a]pyrazin-6-yl)picolinonitrile] | 100 to 1000 nM | < 100 nM | 5 to 20 nM | 1 to 5 µM | > 100 nM | > 10 µM | < 100 nM | – | – | – | –
12 | C[C@@H]1CN(c2ccnn3cc(-c4cnn(-c5cccnc5)c4)cc23)C(=O)[C@]1(C#N)C1CC1 [Example 159, (3R,4S)-3-cyclopropyl-4-methyl-2-oxo-1-(6-(1-(pyridin-3-yl)-1H-pyrazol-4-yl)pyrrolo[1,2-b]pyridazin-4-yl)pyrrolidine-3-carbonitrile] | 100 to 1000 nM | 100 to 1000 nM | < 5 nM | 1 to 5 µM | 50 to 100 nM | 5 to 10 µM | 100 to 1000 nM | – | – | – | –
13 | C[C@@H]1CN(c2nc(-c3cnn(C)c3)cn3nccc23)C(=O)[C@]1(C#N)C1CC1 [Example 184, (3R,4S)-3-cyclopropyl-4-methyl-1-(6-(1-methyl-1H-pyrazol-4-yl)pyrazolo[1,5-a]pyrazin-4-yl)-2-oxopyrrolidine-3-carbonitrile] | < 100 nM | < 100 nM | < 5 nM | 0.1 to 1 µM | 20 to 50 nM | 0.1 to 1 µM | < 100 nM | – | – | – | –
14 | C[C@@H]1CN(c2ccnn3cc(-c4cnn(-c5ccncc5)c4)cc23)C(=O)[C@]1(C#N)C1CC1 [Example 160, (3R,4S)-3-cyclopropyl-4-methyl-2-oxo-1-(6-(1-(pyridin-4-yl)-1H-pyrazol-4-yl)pyrrolo[1,2-b]pyridazin-4-yl)pyrrolidine-3-carbonitrile] | 100 to 1000 nM | 100 to 1000 nM | < 5 nM | 1 to 5 µM | 50 to 100 nM | 1 to 5 µM | 100 to 1000 nM | – | – | – | –
15 | C[C@@H]1CN(c2nc(-c3cnn(C)c3)cc3ncsc23)C(=O)[C@]1(C#N)C1CC1 [Example 284, (3R,4S)-3-cyclopropyl-4-methyl-1-(6-(1-methyl-1H-pyrazol-4-yl)thiazolo[5,4-c]pyridin-4-yl)-2-oxopyrrolidine-3-carbonitrile] | – | – | – | < 0.1 µM | 5 to 20 nM | < 0.1 µM | – | < 100 nM | < 100 nM | < 5 nM | < 100 nM
16 | C[C@@H]1CN(c2ccnn3cc(-c4cccnc4F)cc23)C(=O)[C@]1(C#N)C1CC1 [Example 56, (3R,4S)-3-cyclopropyl-1-(6-(2-fluoropyridin-3-yl)pyrrolo[1,2-b]pyridazin-4-yl)-4-methyl-2-oxopyrrolidine-3-carbonitrile] | 100 to 1000 nM | 100 to 1000 nM | 5 to 20 nM | 5 to 10 µM | > 100 nM | > 10 µM | 100 to 1000 nM | – | – | – | –
